# Test results taken from publication PMC9250534, “Synthesis and direct assay of large macrocycle diversities by combinatorial late-stage modification at picomole scale” (Nature Communications, 2022).
# Numbered stars: 1 amine (or outer) side, 2 acyl side, 3 side chain; on linkers, the order of the positions; unused ones are H or OH. Bridge positions count the residues as written; N and C are the ends. Square brackets hold non-standard residues; d marks the D form. Peptide text beside a SMILES is read from it. * marks the point of attachment. Isoorotoyl = O=C(c1c[nH]c(=O)[nH]c1=O)*; Nicotinoyl(6-OMe) = COc1ccc(C(=O)*)cn1; 2Thenoyl(5-Cl) = O=C(c1ccc(Cl)s1)*; Cysteamide = C(CS[*:3])N[*:1]; X3 = O=C(Cc1c[nH]c2ccccc12)*; 4Amb = NCc1ccc(C(=O)O)cc1; Isovaleryl = CC(C)CC(=O)*; Orn = NCCC[C@H](N)C(=O)O; Bz = O=C(c1ccccc1)*; βAla = NCCC(=O)O; Mpa = O=C(O)CCS
# Biological target: T1, thrombin (Homo sapiens, UniProt P00734)
# T1 construct: consists of two polypeptide chains of 36 (light chain) and 259 amino acid
# Assay: Thrombin inhibition screen of crude macrocycle reactions (residual thrombin activity, fluorogenic substrate Z-Gly-Gly-Arg-AMC)
# Assay type: biochemical
# Conditions: 10 µM macrocycle concentration; crude reactions, Library 1a-l; scaffold AA1-AA2-AA3 combined with 1-16 or '-'
# Experimental: As a proof-of-concept, we screened the macrocycle library for inhibitors against thrombin, which is the central blood coagulation protease and an important therapeutic target. We conducted the screen for thrombin-inhibiting macrocycles in 384-well reaction plates. Briefly, each well contained a unique macrocycle (10 μM), 5 μL of thrombin (2 nM final conc.), and subsequently, 5 µL of a fluorogenic substrate to measure the residual thrombin activity and the extent of protease inhibition.
# The assays were performed in 384-well plates using Tris buffer at pH 7.4 (100 mM Tris-Cl, 150 mM NaCl, 10 mM MgCl2, 1 mM CaCl2, 0.1% w/v BSA, 0.01% v/v Triton-X100, and 0.6% v/v DMSO) using thrombin at a final concentration of 2 nM and the fluorogenic substrate Z-Gly-Gly-Arg-AMC at a final concentration of 50 μM. Thrombin (5 μL, 6 nM) in the Tris-Cl buffer described above was added to each peptide using a BioTek MultiFlo microplate dispenser, and incubated for 10 min at room temperature. […] Data was collected and exported using the Tecan Infinite M200 Pro instrument software. […] For the negative controls (20 wells containing DMSO but no macrocycle), an average slope was calculated. The percent of thrombin inhibition was calculated by dividing the slopes and multiplying the results by 100.
row,SMILES,percent residual thrombin activity [%]
1,NC(=O)CC[C@@H]1NC(=O)[C@@H]2CCCN2C(=O)CCSSCCNC(=O)[C@H](CCCNC(=O)Cc2c[nH]c3ccccc23)NC1=O [B1-Q-D2/12] ([Mpa]PQ[Orn](X3)-Cysteamide; disulfide 1-C),104.653
2,O=C(NCCC[C@@H]1NC(=O)[C@H](CO)NC(=O)[C@@H]2CCCN2C(=O)CCSSCCNC1=O)c1ccccc1 [B1-S-D2/1] ([Mpa]PS[Orn](Bz)-Cysteamide; disulfide 1-C),109.462
3,CC(C)CC(=O)NCCC[C@@H]1NC(=O)[C@H](CO)NC(=O)[C@@H]2CCCN2C(=O)CCSSCCNC1=O [B1-S-D2/8] ([Mpa]PS[Orn](Isovaleryl)-Cysteamide; disulfide 1-C),106.543
4,O=C(NCCC[C@@H]1NC(=O)[C@H](CO)NC(=O)[C@@H]2CCCN2C(=O)CCSSCCNC1=O)c1c[nH]c(=O)[nH]c1=O [B1-S-D2/11] ([Mpa]PS[Orn](Isoorotoyl)-Cysteamide; disulfide 1-C),112.339
5,O=C(NCCC[C@@H]1NC(=O)[C@H](CO)NC(=O)[C@@H]2CCCN2C(=O)CCSSCCNC1=O)c1ccc(Cl)s1 [B1-S-D2/14] ([Mpa]PS[Orn](2Thenoyl(5-Cl))-Cysteamide; disulfide 1-C),96.3876
6,COc1ccc(C(=O)NCCCC[C@@H]2NC(=O)[C@@H](CO)NC(=O)[C@@H]3CCCN3C(=O)CCSSCCNC2=O)cn1 [B1-s-D1/10] ([Mpa]P[dS]K(Nicotinoyl(6-OMe))-Cysteamide; disulfide 1-C),110.704
7,O=C(Cc1c[nH]c2ccccc12)NCCCC[C@@H]1NC(=O)[C@@H](CO)NC(=O)[C@@H]2CCCN2C(=O)CCSSCCNC1=O [B1-s-D1/12] ([Mpa]P[dS]K(X3)-Cysteamide; disulfide 1-C),111.278
8,NCCCC[C@@H]1NC(=O)[C@@H](CO)NC(=O)[C@@H]2CCCN2C(=O)CCSSCCNC1=O [B1-s-D1/-] ([Mpa]P[dS]K-Cysteamide; disulfide 1-C),113.487
9,O=C(NCCC[C@@H]1NC(=O)[C@H](CO)NC(=O)[C@@H]2CCCN2C(=O)CCSSCCNC1=O)c1ccccc1 [B1-s-D2/1] ([Mpa]PS[Orn](Bz)-Cysteamide; disulfide 1-C),108.892
10,CC(C)CC(=O)NCCC[C@@H]1NC(=O)[C@H](CO)NC(=O)[C@@H]2CCCN2C(=O)CCSSCCNC1=O [B1-s-D2/8] ([Mpa]PS[Orn](Isovaleryl)-Cysteamide; disulfide 1-C),104.868
11,O=C(NCCC[C@@H]1NC(=O)[C@H](CO)NC(=O)[C@@H]2CCCN2C(=O)CCSSCCNC1=O)c1c[nH]c(=O)[nH]c1=O [B1-s-D2/11] ([Mpa]PS[Orn](Isoorotoyl)-Cysteamide; disulfide 1-C),111.409
12,O=C(NCCC[C@@H]1NC(=O)[C@H](CO)NC(=O)[C@@H]2CCCN2C(=O)CCSSCCNC1=O)c1ccc(Cl)s1 [B1-s-D2/14] ([Mpa]PS[Orn](2Thenoyl(5-Cl))-Cysteamide; disulfide 1-C),95.3682
13,COc1ccc(C(=O)NCCC[C@@H]2NC(=O)CCNC(=O)CCSSCCNC(=O)[C@H](Cc3ccc(O)cc3)NC2=O)cn1 [B2-D2-Y/10],105.275
14,O=C1CCSSCCNC(=O)[C@H](Cc2ccc(O)cc2)NC(=O)[C@H](CCCNC(=O)COc2ccccc2)NC(=O)CCN1 [B2-D2-Y/13],109.064
15,O=C1CCSSCCNC(=O)[C@H](Cc2ccc(O)cc2)NC(=O)[C@H](CCCNC(=O)c2ccco2)NC(=O)CCN1 [B2-D2-Y/16],116.586
16,CC(C)C[C@@H]1NC(=O)CCNC(=O)CCSSCCNC(=O)[C@H](CCCNC(=O)c2ccccc2)NC1=O [B2-L-D2/1] ([Mpa][βAla]L[Orn](Bz)-Cysteamide; disulfide 1-C),106.68
17,CC(C)C[C@@H]1NC(=O)CCNC(=O)CCSSCCNC(=O)[C@H](CCCNC(=O)c2cnccn2)NC1=O [B2-L-D2/2],112.903
18,COc1ccc(C(=O)NCCC[C@@H]2NC(=O)[C@H](CC(C)C)NC(=O)CCNC(=O)CCSSCCNC2=O)cn1 [B2-L-D2/10],110.801
19,CC(C)C[C@@H]1NC(=O)CCNC(=O)CCSSCCNC(=O)[C@H](CCCNC(=O)c2c[nH]c(=O)[nH]c2=O)NC1=O [B2-L-D2/11],112.783
20,CC(C)C[C@@H]1NC(=O)CCNC(=O)CCSSCCNC(=O)[C@H](CCCNC(=O)c2ccco2)NC1=O [B2-L-D2/16],111.509
21,CC(C)C[C@@H]1NC(=O)CCNC(=O)CCSSCCNC(=O)[C@H](CCCN)NC1=O [B2-L-D2/-] ([Mpa][βAla]L[Orn]-Cysteamide; disulfide 1-C),113.32
22,O=C1CCSSCCNC(=O)[C@H](Cc2ccc(O)cc2)NC(=O)[C@H](CCCCNC(=O)c2c[nH]c(=O)cn2)NC(=O)c2ccc(cc2)CN1 [B3-D1-Y/9],101.633

row,SMILES,percent residual thrombin activity [%]
1,COc1ccc(C(=O)NCCCC[C@@H]2NC(=O)c3ccc(cc3)CNC(=O)CCSSCCNC(=O)[C@H](Cc3ccc(O)cc3)NC2=O)cn1 [B3-D1-Y/10],99.2373
2,COc1ccc(C(=O)NCCCC[C@@H]2NC(=O)[C@H](Cc3cnc[nH]3)NC(=O)c3ccc(cc3)CNC(=O)CCSSCCNC2=O)cn1 [B3-H-D1/10],107.476
3,O=C1CCSSCCNC(=O)[C@H](CCCCNC(=O)c2c[nH]c(=O)[nH]c2=O)NC(=O)[C@H](Cc2c[nH]cn2)NC(=O)c2ccc(cc2)CN1 [B3-H-D1/11],112.941
4,O=C1CCSSCCNC(=O)[C@H](CCCCNC(=O)c2ccc(Cl)s2)NC(=O)[C@H](Cc2c[nH]cn2)NC(=O)c2ccc(cc2)CN1 [B3-H-D1/14],102.666
5,O=C1CCSSCCNC(=O)[C@H](CCCCNC(=O)c2ccco2)NC(=O)[C@H](Cc2cnc[nH]2)NC(=O)c2ccc(cc2)CN1 [B3-H-D1/16],107.22
6,CC(C)[C@@H]1NC(=O)c2ccc(cc2)CNC(=O)CCSSCCNC(=O)[C@H](CCCCNC(=O)c2c[nH]c(=O)cn2)NC1=O [B3-V-D1/9],107.378
7,COc1ccc(C(=O)NCCCC[C@@H]2NC(=O)[C@H](C(C)C)NC(=O)c3ccc(cc3)CNC(=O)CCSSCCNC2=O)cn1 [B3-V-D1/10],106.658
8,O=C1CCSSCCNC(=O)[C@H](CCCCNC(=O)c2ccccc2)NC(=O)[C@@H](Cc2ccc(O)cc2)NC(=O)c2ccc(cc2)CN1 [B3-y-D1/1] ([Mpa][4Amb][dY]K(Bz)-Cysteamide; disulfide 1-C),107.146
9,Cc1nnsc1C(=O)NCCCC[C@@H]1NC(=O)[C@@H](Cc2ccc(O)cc2)NC(=O)c2ccc(cc2)CNC(=O)CCSSCCNC1=O [B3-y-D1/15],112.065
10,O=C(COc1ccccc1)NCCCC[C@@H]1NC(=O)[C@H]2CCCN(C2)C(=O)CCSSCCNC(=O)[C@H](CO)NC1=O [B4-D1-S/13],103.519
11,O=C(NCCCC[C@@H]1NC(=O)[C@@H](Cc2c[nH]c3ccccc23)NC(=O)[C@H]2CCCN(C2)C(=O)CCSSCCNC1=O)c1ccccc1 [B4-W-D1/1],101.061
12,CC(C)CC(=O)NCCCC[C@@H]1NC(=O)[C@@H](Cc2c[nH]c3ccccc23)NC(=O)[C@H]2CCCN(C2)C(=O)CCSSCCNC1=O [B4-W-D1/8],98.2761
13,O=C(NCCCC[C@@H]1NC(=O)[C@@H](Cc2c[nH]c3ccccc23)NC(=O)[C@H]2CCCN(C2)C(=O)CCSSCCNC1=O)c1c[nH]c(=O)cn1 [B4-W-D1/9],96.1174
14,O=C(COc1ccccc1)NCCCC[C@@H]1NC(=O)[C@@H](Cc2c[nH]c3ccccc23)NC(=O)[C@H]2CCCN(C2)C(=O)CCSSCCNC1=O [B4-W-D1/13],97.6967
15,O=C(NCCCC[C@@H]1NC(=O)[C@@H](Cc2c[nH]c3ccccc23)NC(=O)[C@H]2CCCN(C2)C(=O)CCSSCCNC1=O)c1ccc(Cl)s1 [B4-W-D1/14],84.8525
16,NCCCC[C@@H]1NC(=O)[C@@H](Cc2c[nH]c3ccccc23)NC(=O)[C@H]2CCCN(C2)C(=O)CCSSCCNC1=O [B4-W-D1/-],98.9418
17,O=C(NCCCC[C@@H]1NC(=O)[C@@H](Cc2c[nH]c3ccccc23)NC(=O)[C@H]2CCCN(C2)C(=O)CCSSCCNC1=O)c1ccccc1 [B4-w-D1/1],105.33
18,CC(C)CC(=O)NCCCC[C@@H]1NC(=O)[C@@H](Cc2c[nH]c3ccccc23)NC(=O)[C@H]2CCCN(C2)C(=O)CCSSCCNC1=O [B4-w-D1/8],116.689
19,O=C(NCCCC[C@@H]1NC(=O)[C@@H](Cc2c[nH]c3ccccc23)NC(=O)[C@H]2CCCN(C2)C(=O)CCSSCCNC1=O)c1c[nH]c(=O)cn1 [B4-w-D1/9],111.618
20,O=C(COc1ccccc1)NCCCC[C@@H]1NC(=O)[C@@H](Cc2c[nH]c3ccccc23)NC(=O)[C@H]2CCCN(C2)C(=O)CCSSCCNC1=O [B4-w-D1/13],115.4
21,O=C(NCCCC[C@@H]1NC(=O)[C@@H](Cc2c[nH]c3ccccc23)NC(=O)[C@H]2CCCN(C2)C(=O)CCSSCCNC1=O)c1ccc(Cl)s1 [B4-w-D1/14],105.59
22,NCCCC[C@@H]1NC(=O)[C@@H](Cc2c[nH]c3ccccc23)NC(=O)[C@H]2CCCN(C2)C(=O)CCSSCCNC1=O [B4-w-D1/-],108.066
